ChEMBL document CHEMBL5143733, “Discovery of (E)-3-(3-((2-Cyano-4'-dimethylaminobiphenyl-4-ylmethyl)cyclohexanecarbonylamino)-5-fluorophenyl)acrylic Acid Methyl Ester, an Intestine-Specific, FXR Partial Agonist for the Treatment of Nonalcoholic Steatohepatitis” (J Med Chem, 2022)
Activity calls are given as the source filed them. The rule behind the calls is not given here.

Tests used:
[1] = molecular target: T1, Bile acid receptor (Homo sapiens, UniProt Q96RI1)
T1 sequence (Q96RI1 whole entry): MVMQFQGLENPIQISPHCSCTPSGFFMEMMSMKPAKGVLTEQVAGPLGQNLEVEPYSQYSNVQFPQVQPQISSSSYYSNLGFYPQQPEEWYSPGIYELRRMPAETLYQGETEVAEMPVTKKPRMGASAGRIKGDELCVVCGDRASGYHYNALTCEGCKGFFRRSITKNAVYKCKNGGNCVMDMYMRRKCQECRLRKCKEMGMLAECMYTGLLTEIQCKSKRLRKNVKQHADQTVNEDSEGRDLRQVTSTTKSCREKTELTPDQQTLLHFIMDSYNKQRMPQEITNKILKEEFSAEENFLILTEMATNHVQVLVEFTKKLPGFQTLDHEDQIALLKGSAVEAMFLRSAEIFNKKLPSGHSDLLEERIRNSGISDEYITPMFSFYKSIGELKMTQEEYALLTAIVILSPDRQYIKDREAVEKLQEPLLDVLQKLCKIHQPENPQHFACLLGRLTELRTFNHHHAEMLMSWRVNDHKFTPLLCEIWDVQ
Description: Agonist activity at human FXR transfected in CHO-K1 cells coexpressed with beta-galactosidase incubated for 3 to 16 hrs by PathHunter chemiluminescence based assay

[2] = Stability in Sprague-Dawley rat plasma at 80 mg/kg, po measured after 3 hrs by RP-HPLC analysis; format: ADME, organism-based; details: in vivo
[3] = Clearance in Sprague-Dawley rat at 5 mg/kg, iv measured up to 24 hrs by HPLC analysis; format: ADME, organism-based; details: in vivo
[4] = Half life in Sprague-Dawley rat at 5 mg/kg, iv measured up to 24 hrs by HPLC analysis; format: ADME, organism-based; details: in vivo
[5] = molecular target: T2, Bile acid receptor (Homo sapiens) (UniProt Q96RI1); assay: Antagonist activity at human FXR expressed in CHO-K1 FXR cells coexpressed with beta-galactosidase at 1.1 uM preincubated for 60 mins followed by GW4064 addition and measured after 3 to 16 hrs by PathHunter chemiluminescence based assay relative to control; format: cell-based; design: scale not given: the % may be the effect or the level left; details: time 4-17 hrs
T2 sequence (whole entry): T1 sequence (Q96RI1 whole entry)

[6] = molecular target: T2, Bile acid receptor (Homo sapiens); assay: Agonist activity at human FXR transfected in CHO-K1 cells coexpressed with beta-galactosidase at 10 uM incubated for 3 to 16 hrs by PathHunter chemiluminescence based assay relative to control; format: cell-based; details: time 3-16 hrs
[7] = molecular target: T2, Bile acid receptor (Homo sapiens); assay: Antagonist activity at human FXR expressed in CHO-K1 FXR cells coexpressed with beta-galactosidase at 10 uM preincubated for 60 mins followed by GW4064 addition and measured after 3 to 16 hrs by PathHunter chemiluminescence based assay relative to control; format: cell-based; design: scale not given: the % may be the effect or the level left; details: time 4-17 hrs
[8] = molecular target: T2, Bile acid receptor (Homo sapiens); assay: Antagonist activity at human FXR expressed in CHO-K1 FXR cells coexpressed with beta-galactosidase at 3.3 uM preincubated for 60 mins followed by GW4064 addition and measured after 3 to 16 hrs by PathHunter chemiluminescence based assay relative to control; format: cell-based; design: scale not given: the % may be the effect or the level left; details: time 4-17 hrs
[9] = Volume of distribution at steady state in Sprague-Dawley rat at 5 mg/kg, iv measured up to 24 hrs by HPLC analysis; format: ADME, organism-based; details: in vivo, read-out: Vdss
[10] = AUClast in Sprague-Dawley rat at 5 mg/kg, iv measured up to 24 hrs by HPLC analysis; format: ADME, organism-based; design: time < 24 hrs, dose 5 mg/kg, route iv; details: Sprague-Dawley, in vivo
[11] = molecular target: T3, Bile acid receptor (Mus musculus) (UniProt Q60641); assay: In vivo activation of FXR in CDAHFD-induced nonalcoholic steatohepatitis C57BL/6J mouse model assessed as reduction in liver fibrosis at 80 mg/kg, po administered daily for 4 weeks by picrosirius red staining method; format: functional, organism-based
T3 sequence (whole entry): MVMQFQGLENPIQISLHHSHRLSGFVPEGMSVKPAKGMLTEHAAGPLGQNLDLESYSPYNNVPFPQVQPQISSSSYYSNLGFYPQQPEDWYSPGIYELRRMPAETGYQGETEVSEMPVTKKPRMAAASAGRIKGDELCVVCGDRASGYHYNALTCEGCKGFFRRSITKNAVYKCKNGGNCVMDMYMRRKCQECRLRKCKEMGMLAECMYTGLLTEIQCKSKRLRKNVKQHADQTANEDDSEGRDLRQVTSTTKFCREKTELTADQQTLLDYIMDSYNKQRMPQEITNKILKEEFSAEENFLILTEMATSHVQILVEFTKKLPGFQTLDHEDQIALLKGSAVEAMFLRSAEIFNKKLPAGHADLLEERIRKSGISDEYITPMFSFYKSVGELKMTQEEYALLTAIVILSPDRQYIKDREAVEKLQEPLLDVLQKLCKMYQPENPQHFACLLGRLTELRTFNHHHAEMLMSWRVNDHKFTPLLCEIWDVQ

[12] = Toxicity in CDAHFD-induced nonalcoholic steatohepatitis C57BL/6J mouse model assessed as increase in liver wet weight at 80 mg/kg, po administered daily for 4 weeks […]; format: organism-based; details: in vivo, 672 h
[13] = molecular target: T3, Bile acid receptor (Mus musculus); assay: In vivo activation of FXR in CDAHFD-induced nonalcoholic steatohepatitis C57BL/6J mouse model assessed as induction of IBABP gene expression at 80 mg/kg, po administered daily for 4 weeks; format: functional, organism-based
[14] = molecular target: T3, Bile acid receptor (Mus musculus); assay: In vivo activation of FXR in CDAHFD-induced nonalcoholic steatohepatitis C57BL/6J mouse model assessed as induction of OST-alpha gene expression at 80 mg/kg, po administered daily for 4 weeks; format: functional, organism-based
[15] = molecular target: T3, Bile acid receptor (Mus musculus); assay: In vivo activation of FXR in CDAHFD-induced nonalcoholic steatohepatitis C57BL/6J mouse model assessed as induction of SHP gene expression at 80 mg/kg, po administered daily for 4 weeks; format: functional, organism-based
[16] = molecular target: T3, Bile acid receptor (Mus musculus); assay: In vivo activation of FXR in CDAHFD-induced nonalcoholic steatohepatitis C57BL/6J mouse model assessed as induction of SHP gene expression in liver at 80 mg/kg, po administered daily for 4 weeks; format: functional, organism-based
[17] = Toxicity in CDAHFD-induced nonalcoholic steatohepatitis C57BL/6J mouse model assessed as change in body weight at 80 mg/kg, po administered daily for 4 weeks; format: organism-based; details: in vivo, 672 h
[18] = Toxicity in CDAHFD-induced nonalcoholic steatohepatitis C57BL/6J mouse model assessed as change in amount of food intake at 80 mg/kg, po administered daily for 4 weeks; format: organism-based; details: in vivo, 672 h
[19] = molecular target: T3, Bile acid receptor (Mus musculus); assay: In vivo activation of FXR in CDAHFD-induced nonalcoholic steatohepatitis C57BL/6J mouse model assessed as induction of FGF15 gene expression at 80 mg/kg, po administered daily for 4 weeks; format: functional, organism-based
[20] = molecular target: T3, Bile acid receptor (Mus musculus); assay: In vivo activation of FXR in […]-induced nonalcoholic steatohepatitis C57BL/6J mouse model assessed as improved glucose tolerance measured up to 120 mins by glucose tolerance test; format: functional
[21] = molecular target: Estrogen receptor (Homo sapiens) (UniProt P03372); assay: Agonist activity at human ERalpha expressed in CHO-K1 cells assessed as maximum relative efficacy at 100 uM by PathHunter assay relative to 17-beta-estradiol; format: cell-based
[22] = molecular target: Peroxisome proliferator-activated receptor gamma (Homo sapiens) (UniProt P37231); assay: Agonist activity at human PPAR-gamma expressed in CHO-K1 cells assessed as maximum relative efficacy at 100 uM by PathHunter assay relative to troglitazone; format: cell-based
Sequence of Peroxisome proliferator-activated receptor gamma (Homo sapiens) (P37231 whole entry): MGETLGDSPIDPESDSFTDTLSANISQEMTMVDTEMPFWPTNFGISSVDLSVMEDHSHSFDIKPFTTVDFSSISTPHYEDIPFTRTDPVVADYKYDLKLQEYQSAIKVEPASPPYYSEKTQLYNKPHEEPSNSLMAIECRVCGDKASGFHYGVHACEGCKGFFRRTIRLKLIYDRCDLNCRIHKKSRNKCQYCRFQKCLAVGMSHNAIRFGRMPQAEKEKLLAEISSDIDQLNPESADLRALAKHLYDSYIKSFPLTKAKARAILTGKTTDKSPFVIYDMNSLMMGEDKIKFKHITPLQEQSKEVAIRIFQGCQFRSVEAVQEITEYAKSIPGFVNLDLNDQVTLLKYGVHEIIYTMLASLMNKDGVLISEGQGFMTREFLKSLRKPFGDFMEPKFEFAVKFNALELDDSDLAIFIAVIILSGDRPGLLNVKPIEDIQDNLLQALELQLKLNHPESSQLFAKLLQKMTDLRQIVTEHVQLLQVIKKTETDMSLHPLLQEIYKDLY

[23] = molecular target: Oxysterols receptor LXR-alpha (Homo sapiens) (UniProt Q13133); assay: Agonist activity at human LXR-alpha expressed in CHO-K1 cells assessed as maximum relative efficacy at 100 uM by PathHunter assay relative to TO901317; format: cell-based
[24] = molecular target: Retinoic acid receptor alpha (Homo sapiens) (UniProt P10276); assay: Agonist activity at human RAR-alpha expressed in CHO-K1 cells assessed as maximum relative efficacy at 100 uM by PathHunter assay relative to 9-cis-retinoic acid; format: cell-based
[25] = molecular target: Glucocorticoid receptor (Homo sapiens) (UniProt P04150); assay: Agonist activity at human GR expressed in CHO-K1 cells assessed as maximum relative efficacy at 100 uM by PathHunter assay relative to dexamethasone; format: cell-based
[26] = molecular target: Progesterone receptor (Homo sapiens) (UniProt P06401); assay: Agonist activity at human PR-alpha expressed in U2OS cells assessed as maximum relative efficacy at 100 uM by PathHunter assay relative to norgestrel; format: cell-based
Sequence of Progesterone receptor (Homo sapiens) (P06401 whole entry): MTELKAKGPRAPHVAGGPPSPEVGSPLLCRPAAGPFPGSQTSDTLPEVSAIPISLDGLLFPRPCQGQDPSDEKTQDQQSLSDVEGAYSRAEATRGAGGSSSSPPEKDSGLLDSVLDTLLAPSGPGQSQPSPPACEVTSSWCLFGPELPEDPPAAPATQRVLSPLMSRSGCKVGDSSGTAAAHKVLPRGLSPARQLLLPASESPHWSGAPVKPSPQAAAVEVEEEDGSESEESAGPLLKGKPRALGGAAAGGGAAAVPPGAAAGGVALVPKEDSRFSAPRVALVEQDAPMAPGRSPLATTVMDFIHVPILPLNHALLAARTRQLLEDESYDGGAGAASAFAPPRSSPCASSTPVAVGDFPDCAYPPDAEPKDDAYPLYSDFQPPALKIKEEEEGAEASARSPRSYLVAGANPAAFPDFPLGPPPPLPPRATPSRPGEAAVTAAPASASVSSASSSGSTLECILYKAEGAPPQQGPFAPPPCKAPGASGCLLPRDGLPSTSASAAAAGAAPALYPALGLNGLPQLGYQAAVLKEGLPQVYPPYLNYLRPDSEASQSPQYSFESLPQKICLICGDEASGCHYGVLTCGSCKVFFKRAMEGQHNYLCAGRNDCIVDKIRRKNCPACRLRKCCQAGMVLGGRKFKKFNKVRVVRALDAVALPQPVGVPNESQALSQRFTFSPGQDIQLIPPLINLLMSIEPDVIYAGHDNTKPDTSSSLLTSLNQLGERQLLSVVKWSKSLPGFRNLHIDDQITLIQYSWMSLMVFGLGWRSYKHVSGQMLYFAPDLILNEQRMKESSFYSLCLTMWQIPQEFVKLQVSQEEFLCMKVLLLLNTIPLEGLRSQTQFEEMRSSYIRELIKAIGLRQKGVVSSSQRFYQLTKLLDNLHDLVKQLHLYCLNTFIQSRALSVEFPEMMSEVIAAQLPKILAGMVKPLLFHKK

[27] = molecular target: Thyroid hormone receptor alpha (Homo sapiens) (UniProt P10827); assay: Agonist activity at human THR-alpha expressed in CHO-K1 cells assessed as maximum relative efficacy at 100 uM by PathHunter assay relative to control; format: cell-based
Sequence of Thyroid hormone receptor alpha (Homo sapiens) (P10827 whole entry): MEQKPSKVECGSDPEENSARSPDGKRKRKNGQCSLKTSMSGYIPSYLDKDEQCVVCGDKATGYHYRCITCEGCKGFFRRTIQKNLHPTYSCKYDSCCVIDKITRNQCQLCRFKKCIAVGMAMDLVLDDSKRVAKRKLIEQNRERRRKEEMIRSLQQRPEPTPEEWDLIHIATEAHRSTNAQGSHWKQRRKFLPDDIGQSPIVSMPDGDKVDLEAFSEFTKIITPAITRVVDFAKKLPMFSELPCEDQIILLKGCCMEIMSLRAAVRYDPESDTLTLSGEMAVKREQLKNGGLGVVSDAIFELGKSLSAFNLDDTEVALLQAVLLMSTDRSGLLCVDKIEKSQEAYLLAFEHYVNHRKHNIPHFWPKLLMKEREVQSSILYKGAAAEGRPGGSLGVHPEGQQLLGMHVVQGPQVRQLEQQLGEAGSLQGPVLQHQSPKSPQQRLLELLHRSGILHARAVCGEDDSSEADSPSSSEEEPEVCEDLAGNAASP

[28] = molecular target: Peroxisome proliferator-activated receptor delta (Homo sapiens) (UniProt Q03181); assay: Agonist activity at human PPAR-delta expressed in CHO-K1 cells assessed as maximum relative efficacy at 100 uM by PathHunter assay relative to L-165,041; format: cell-based
Sequence of Peroxisome proliferator-activated receptor delta (Homo sapiens) (Q03181 whole entry): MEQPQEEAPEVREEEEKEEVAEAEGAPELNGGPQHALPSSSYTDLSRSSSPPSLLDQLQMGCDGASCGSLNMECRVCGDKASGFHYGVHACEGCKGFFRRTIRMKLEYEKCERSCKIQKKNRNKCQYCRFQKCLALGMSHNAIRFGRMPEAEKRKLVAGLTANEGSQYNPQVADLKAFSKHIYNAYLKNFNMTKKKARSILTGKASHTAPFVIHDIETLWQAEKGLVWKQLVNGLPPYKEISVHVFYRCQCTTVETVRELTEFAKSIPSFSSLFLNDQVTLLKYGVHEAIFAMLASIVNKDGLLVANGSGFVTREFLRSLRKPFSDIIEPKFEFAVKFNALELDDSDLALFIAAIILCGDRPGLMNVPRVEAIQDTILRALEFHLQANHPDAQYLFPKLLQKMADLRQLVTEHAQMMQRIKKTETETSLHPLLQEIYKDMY

[29] = molecular target: Retinoic acid receptor beta (Homo sapiens) (UniProt P10826); assay: Agonist activity at human RAR-beta expressed in CHO-K1 cells assessed as maximum relative efficacy at 100 uM by PathHunter assay relative to 9-cis-retinoic acid; format: cell-based
Sequence of Retinoic acid receptor beta (Homo sapiens) (P10826 whole entry): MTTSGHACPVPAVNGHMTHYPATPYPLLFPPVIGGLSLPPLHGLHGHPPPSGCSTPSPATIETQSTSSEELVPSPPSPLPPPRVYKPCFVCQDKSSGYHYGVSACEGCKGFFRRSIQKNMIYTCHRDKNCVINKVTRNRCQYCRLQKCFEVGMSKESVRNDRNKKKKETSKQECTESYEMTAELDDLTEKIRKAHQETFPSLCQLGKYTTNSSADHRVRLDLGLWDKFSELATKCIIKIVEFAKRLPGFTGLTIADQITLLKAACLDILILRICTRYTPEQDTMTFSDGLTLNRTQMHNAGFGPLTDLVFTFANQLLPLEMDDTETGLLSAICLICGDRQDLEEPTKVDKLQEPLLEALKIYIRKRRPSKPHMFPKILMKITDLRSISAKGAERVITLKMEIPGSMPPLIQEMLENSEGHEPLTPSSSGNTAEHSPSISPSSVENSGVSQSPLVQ

[30] = molecular target: Oxysterols receptor LXR-beta (Homo sapiens) (UniProt P55055); assay: Agonist activity at human LXR-beta expressed in CHO-K1 cells assessed as maximum relative efficacy at 100 uM by PathHunter assay relative to TO901317; format: cell-based
[31] = molecular target: Retinoic acid receptor RXR-beta (Homo sapiens) (UniProt P28702); assay: Agonist activity at human RXR-beta expressed in U2OS cells assessed as maximum relative efficacy at 100 uM by PathHunter assay relative to 9-cis-retinoic acid; format: cell-based
Sequence of Retinoic acid receptor RXR-beta (Homo sapiens) (P28702 whole entry): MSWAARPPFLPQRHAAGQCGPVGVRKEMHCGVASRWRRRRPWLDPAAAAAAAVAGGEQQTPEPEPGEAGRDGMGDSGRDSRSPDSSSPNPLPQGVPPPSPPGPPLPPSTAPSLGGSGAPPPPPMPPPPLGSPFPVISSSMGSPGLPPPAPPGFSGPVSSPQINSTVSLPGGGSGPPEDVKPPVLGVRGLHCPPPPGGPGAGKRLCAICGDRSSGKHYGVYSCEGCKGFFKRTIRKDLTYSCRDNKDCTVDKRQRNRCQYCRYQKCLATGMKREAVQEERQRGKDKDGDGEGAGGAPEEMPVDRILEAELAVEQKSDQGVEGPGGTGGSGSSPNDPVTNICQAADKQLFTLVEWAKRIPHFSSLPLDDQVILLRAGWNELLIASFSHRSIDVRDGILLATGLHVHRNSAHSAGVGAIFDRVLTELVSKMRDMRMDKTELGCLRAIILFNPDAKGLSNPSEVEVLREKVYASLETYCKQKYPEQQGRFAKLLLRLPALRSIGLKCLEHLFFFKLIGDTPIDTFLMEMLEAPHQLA

[32] = molecular target: Peroxisome proliferator-activated receptor alpha (Homo sapiens) (UniProt Q07869); assay: Agonist activity at human PPAR-alpha expressed in CHO-K1 cells assessed as maximum relative efficacy at 100 uM by PathHunter assay relative to GW7647; format: cell-based
[33] = molecular target: Progesterone receptor (Homo sapiens) (UniProt P06401); assay: Agonist activity at human PR-beta expressed in U2OS cells assessed as maximum relative efficacy at 100 uM by PathHunter assay relative to norgestrel; format: cell-based
[34] = molecular target: Retinoic acid receptor RXR-alpha (Homo sapiens) (UniProt P19793); assay: Agonist activity at human RXR-alpha expressed in U2OS cells assessed as maximum relative efficacy at 100 uM by PathHunter assay relative to 9-cis-retinoic acid; format: cell-based
Sequence of Retinoic acid receptor RXR-alpha (Homo sapiens) (P19793 whole entry): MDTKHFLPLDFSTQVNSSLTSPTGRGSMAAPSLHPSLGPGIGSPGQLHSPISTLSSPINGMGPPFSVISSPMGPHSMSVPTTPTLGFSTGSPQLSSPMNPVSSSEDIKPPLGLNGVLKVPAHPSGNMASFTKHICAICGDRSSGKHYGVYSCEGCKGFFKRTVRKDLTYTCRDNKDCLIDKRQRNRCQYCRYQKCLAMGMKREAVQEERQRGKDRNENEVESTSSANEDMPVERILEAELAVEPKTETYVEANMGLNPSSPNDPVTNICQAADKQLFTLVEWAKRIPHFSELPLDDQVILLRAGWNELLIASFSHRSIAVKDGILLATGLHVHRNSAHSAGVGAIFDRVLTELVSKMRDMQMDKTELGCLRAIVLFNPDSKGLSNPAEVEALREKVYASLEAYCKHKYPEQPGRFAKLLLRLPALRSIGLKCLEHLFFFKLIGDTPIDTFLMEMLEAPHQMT

[35] = molecular target: Mineralocorticoid receptor (Homo sapiens) (UniProt P08235); assay: Agonist activity at human MR expressed in CHO-K1 cells assessed as maximum relative efficacy at 100 uM by PathHunter assay relative to aldosterone; format: cell-based
[36] = molecular target: Thyroid hormone receptor beta (Homo sapiens) (UniProt P10828); assay: Agonist activity at human THR-beta expressed in CHO-K1 cells assessed as maximum relative efficacy at 100 uM by PathHunter assay relative to triiodothyronine ine; format: cell-based
[37] = molecular target: Androgen receptor (Homo sapiens) (UniProt P10275); assay: Agonist activity at human AR expressed in CHO-K1 cells assessed as maximum relative efficacy at 100 uM by PathHunter assay relative to 6alpha-fluorotestosterone; format: cell-based
Sequence of Androgen receptor (Homo sapiens) (P10275 whole entry): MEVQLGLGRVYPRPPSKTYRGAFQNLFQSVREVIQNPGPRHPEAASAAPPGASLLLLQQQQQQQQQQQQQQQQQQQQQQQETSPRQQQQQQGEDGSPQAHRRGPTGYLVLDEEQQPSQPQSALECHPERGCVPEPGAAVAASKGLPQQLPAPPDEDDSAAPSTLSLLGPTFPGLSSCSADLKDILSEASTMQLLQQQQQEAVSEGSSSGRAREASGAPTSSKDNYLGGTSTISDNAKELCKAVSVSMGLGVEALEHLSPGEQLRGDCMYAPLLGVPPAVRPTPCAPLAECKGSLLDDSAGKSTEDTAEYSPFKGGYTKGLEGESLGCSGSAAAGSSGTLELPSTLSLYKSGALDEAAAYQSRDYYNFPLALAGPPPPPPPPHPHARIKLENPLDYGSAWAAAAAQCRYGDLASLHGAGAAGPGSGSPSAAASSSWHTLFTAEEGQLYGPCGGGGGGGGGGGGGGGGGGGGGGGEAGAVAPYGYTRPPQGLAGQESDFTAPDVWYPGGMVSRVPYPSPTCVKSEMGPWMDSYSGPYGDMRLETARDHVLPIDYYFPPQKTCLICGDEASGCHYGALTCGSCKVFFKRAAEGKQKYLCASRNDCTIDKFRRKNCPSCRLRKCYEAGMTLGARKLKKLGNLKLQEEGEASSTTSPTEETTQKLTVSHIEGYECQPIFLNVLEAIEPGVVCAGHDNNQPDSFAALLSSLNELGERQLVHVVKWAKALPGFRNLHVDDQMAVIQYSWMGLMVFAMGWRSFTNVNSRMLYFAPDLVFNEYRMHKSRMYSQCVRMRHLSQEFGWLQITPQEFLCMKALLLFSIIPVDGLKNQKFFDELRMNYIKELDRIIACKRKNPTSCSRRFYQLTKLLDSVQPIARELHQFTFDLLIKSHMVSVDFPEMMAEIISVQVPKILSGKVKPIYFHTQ

COC(=O)/C=C/c1cccc(N(Cc2ccc3c(ccc4cc(N(C)C)ccc43)c2)C(=O)C2CCCCC2)c1
EC50 [1]: > 10000 nM

COC(=O)/C=C/c1cccc(N(Cc2ccc3c(c2)CCc2cc(N(C)C)ccc2-3)C(=O)C2CCCCC2)c1
EC50 [1]: > 10000 nM

CN(C)c1ccc(-c2ccc(CN(C(=O)C3CCCCC3)c3cc(F)cc(/C=C/C(=O)O)c3)cc2C#N)cc1
Stability [2]: Unstable | clearance [3]: 70 mL/min/kg | half-life [4]: 14.4 min | Activity [5]: 6% | Activity [6]: 0% | Activity [7]: 26% | Activity [8]: 7% | Vd [9]: 1.4 L/kg | AUC(0-t) at 24 h [10]: 1200 ng·h/mL

CC(C)OC(=O)/C=C/c1cccc(N(Cc2ccc(-c3ccc(N(C)C)cc3)c(C#N)c2)C(=O)C2CCCCC2)c1F
EC50 [1]: 900 nM

COC(=O)/C=C/c1cccc(N(Cc2ccc(-c3ccc(N(C)C)cc3)cc2)C(=O)C2CCCCC2)c1 [FEXARAMINE]
Activity [11]: Active | Activity [12]: Non-Toxic | Activity [13]: Active | Activity [14]: Active | Activity [15]: Active | Activity [16]: Active | Activity [17]: Non-Toxic | Activity [18]: Non-Toxic | Activity [19]: Active | Activity [20]: Active

CN(C)c1ccc(-c2ccc(CN(C(=O)C3CCCCC3)c3cccc(/C=C/C(=O)OCF)c3)cc2C#N)cc1
EC50 [1]: 2600 nM

COC(=O)/C=C/c1cccc(N(Cc2ccc(-c3ccc(N(C)C)cc3)c(C#N)c2)C(=O)C2CCCCC2)c1
Emax [21]: 1% | Emax [22]: 2% | Emax [23]: 0% | Emax [24]: -3% | Emax [25]: 0% | Emax [26]: -1% | Emax [27]: -1% | Emax [28]: -3% | Emax [29]: -11% | Emax [30]: 3% | Emax [31]: -4% | Emax [32]: 0% | Emax [33]: 0% | Emax [34]: -2% | Emax [35]: 0% | Emax [36]: 1% | Emax [37]: -2%

COc1cccc(Cn2cc(C(=O)Nc3ccc(C)c(S(=O)(=O)N4CCOCC4)c3)c(-c3ccc(C)cc3)n2)c1
Activity ([7]; filed as antagonist): 96%
